The nature of data set [1]: Relative solubility in non-halogenated solvents, evaluated by visual observation. To be noted: concentration 30 mg/mL. Type of data set: physicochemical. How it is done:
Each of the compounds is added into the test tubes containing five organic solvents at a concentration of 30 mg/mL.

Data set [2] in a line: Electrochemical properties (onset oxidation/reduction potentials, HOMO, LUMO, gap). Type of data set: physicochemical. Also on record: Eox / Ered: unit not given here. The settings on record: for HOMO: HOMO = −e(Eox + 4.32); for Eg: HOMO-LUMO gap; for LUMO: LUMO = −e(Ered + 4.32); for Eox: onset oxidation potential; for Ered: onset reduction potential. From the text: The energy difference between HOMO and LUMO is also illustrated in FIG. 4. […] The compounds of formulae 1b-d have similar energy difference between HOMO and LUMO, meaning their potential energy levels are similar. Among the compounds of formulae 1a-d, it appears that the compound of formula 1a has the best potential energy suitable for being applied in organic photovoltaics; the compound of formula 1c is the second best.

For the compound `Cc1cccc(C)c1C(=O)OC12c3c4c5c6c7c8c(c9c%10c1c1c%11c3c3c%12c4c4c6c6c7c7c%13c8c9c8c9c%10c1c1c%10c%11c3c3c%11c%12c4c4c6c6c7c7c%13c8c8c9c1c1c%10c3c3c%11c4c6c4c7c8c1c34)C52O[Si](C)(C)c1ccccc1` (stereo not drawn) [Formula 1a], in data set [1], the “Relative solubility in diethyl ether” value is “Insoluble” and the “Relative solubility in toluene” value is “Soluble”. Moreover, in data set [2], the HOMO is on record as −6.08 eV, the Eg amounted to 2.41 eV, the LUMO was −3.67 eV and the Eox worked out at 1.76. Further, the Ered in data set [2] is −0.65.
`Cc1cccc(C)c1C(=O)OC12c3c4c5c6c7c8c(c9c%10c1c1c%11c3c3c%12c4c4c6c6c7c7c%13c8c9c8c9c%10c1c1c%10c%11c3c3c%11c%12c4c4c6c6c7c7c%13c8c8c9c1c1c%10c3c3c%11c4c6c4c7c8c1c34)C52OC[Si](C)(C)c1ccccc1` (stereo not drawn) [Formula 1b]: in data set [1], the “Relative solubility in diethyl ether” value is given as “Insoluble”, the “Relative solubility in ethanol” value was “Insoluble” and the “Relative solubility in ethyl acetate” value is “Insoluble”. In data set [2], the HOMO is listed as −6.03 eV, the Eg was 2.25 eV, the LUMO was −3.78 eV and the Eox came to 1.71. Besides, the Ered in data set [2] is on record as −0.54.
Consider `CCCC[Si](C)(C)OC12c3c4c5c6c7c8c(c9c%10c1c1c%11c3c3c%12c4c4c6c6c7c7c%13c8c9c8c9c%10c1c1c%10c%11c3c3c%11c%12c4c4c6c6c7c7c%13c8c8c9c1c1c%10c3c3c%11c4c6c4c7c8c1c34)C52OC(=O)c1c(C)cccc1C` (stereo not drawn) [Formula 1c], for which, in data set [1], the “Relative solubility in diethyl ether” value was “Insoluble”, the “Relative solubility in ethanol” value is “Insoluble”, the “Relative solubility in ethyl acetate” value is reported as “Insoluble” and the “Relative solubility in toluene” value is listed as “Soluble”. Further, in data set [2], the HOMO was −6.12 eV, the Eg worked out at 2.29 eV, the LUMO is −3.83 eV and the Eox was 1.80. In addition, in data set [2], the Ered was −0.49.
Consider `Cc1cccc(C)c1C(=O)OC12c3c4c5c6c7c8c(c9c%10c1c1c%11c3c3c%12c4c4c6c6c7c7c%13c8c9c8c9c%10c1c1c%10c%11c3c3c%11c%12c4c4c6c6c7c7c%13c8c8c9c1c1c%10c3c3c%11c4c6c4c7c8c1c34)C52O[Si](C)(C)C(C)(C)C` (stereo not drawn) [Formula 1d], for which, in data set [1], the “Relative solubility in diethyl ether” value is given as “Insoluble”, the “Relative solubility in ethanol” value was “Insoluble” and the “Relative solubility in ethyl acetate” value is “Insoluble”. Moreover, the “Relative solubility in tetrahydrofuran (THF)” value in data set [1] (THF) was “Insoluble”. Further, in data set [2], the HOMO was −6.06 eV, the Eg stood at 2.22 eV, the LUMO was −3.84 eV and the Eox was 1.74. This compound also came in with an Ered in data set [2] of −0.48.

The values above are taken from patent US20160039676A1, “Fullerene Derivatives and Their Applications in Organic Photovoltaics” (Nano and Advanced Materials Institute Limited, priority 2014, published 2016).
